# Measured values reported in publication PMC8370991, “Structural basis for the inhibition of HTLV-1 integration inferred from cryo-EM deltaretroviral intasome structures” (Nature Communications, 2021).
# Like-named read-outs stand apart in the source and are kept apart here.
# Legend:
# [1] = test system: HTLV-1; assay: Alu-qPCR of integrated provirus in HTLV-1 infected Jurkat cells; type: cell-based; conditions: normalized to GAPDH
# Protocol: The HTLV-1 cell-to-cell infection was performed as previously described; Jurkat T cells were counted and diluted in complete RPMI to a final concentration of 0.25 × 10^6 cells/ml and pre-treated with INSTI drugs (final concentration ranging from 0.2 pM to 2 μM) or DMSO as a control for 24 h. MT-2 cells were resuspended in RPMI at a concentration of 2 × 10^6 cells/ml and subjected to a nonlethal γ-radiation dose of 400 Gy. Cells were resuspended at a concentration of 2 × 10^6 cells/ml in serum-free RPMI supplemented with the corresponding INSTI drug. Co-culture of 0.5 × 10^6 for each cell line was carried out for 16 h, after which cells were washed in PBS and resuspended in 1 ml of depletion buffer (PBS, 0.1% FBS and 2 mM EGTA). MT-2 cells were depleted from the culture by means of anti-CD25 magnetic beads (DynabeadsTM CD25, Thermo Fisher). Depletion efficiency was confirmed via flow cytometry as described previously. Jurkat cells were cultured for 2 weeks in complete RPMI supplemented with the drugs and genomic DNA was extracted (DNeasy kit, Qiagen) and stored at −20 °C for subsequent analysis. All the experiments were done in triplicate.
# The PVL was measured as previously described[9],[53],[54]. Jurkat genomic DNA was quantified and diluted to a concentration of 5 ng/μL. Real-time qPCR analysis were conducted on 20 ng of gDNA to measure the level of HTLV-1 tax and gapdh genes (Supplementary Table 5). For the standard curve, the gDNA from an HTLV-1 naturally infected T-cell clone (clone 11.50, courtesy of professor Charles Bangham), which has one copy of tax and two of gapdh, was used. The integrated provirus copy number was calculated as follows: (tax copy numbers)/(2×gapdh copy number)[53], and normalised to the DMSO-treated control which was set to 100%. The PVL data were fitted to a dose–response curve in Prism 7 and the EC50 was calculated. Alu-PCR was performed as previously described in ref. [55]. In brief, the first PCR reaction was done with Phusion polymerase starting from 80 ng of gDNA using the ALU-specific primers (Alu-F/Gag-R). The nested PCR was run diluting the amplificated product 1:50. The reaction was done as a qPCR using Gag-specific primers (Gag-R/Gag-F) and the Luna SYBR dye reaction mix (New England Biolabs). The integrated provirus copy numbers were normalised to GAPDH and Jurkat cells treated with DMSO and infected with HTLV-1 were set to 100%. Experiments were done in triplicate. […]
# Supplementary Figure 6 | Integrated provirus was quantified by Alu-qPCR.
# Values were normalized to GAPDH. Uninfected represents uninfected Jurkat cells, acting as negative control. Condition without any drug present (DMSO) was set as 100%. Mean values and standard deviations are shown for n = three biologically independent experiments. P-values were calculated with respect to the DMSO control using the unpaired t-test with Welch’s correction in Prism 9. P-values are two-sided.
# [2] = test system: HIV-1; conditions: cited from earlier work
# [3] = previously reported, read-out: EC50, infection by wild-type HIV-1
Structure (SMILES),Integrated provirus by Alu-qPCR (DMSO = 100%) ([1]; Replicate 1),Integrated provirus by Alu-qPCR (DMSO = 100%) ([1]; Replicate 2),Integrated provirus by Alu-qPCR (DMSO = 100%) ([1]; Replicate 3),"EC50 [2, 3]","EC50 ([2]; previously reported, read-out: EC50, inhibitory potency for HIV-1)","EC50 ([2]; HIV-1 infection model, supplementary ref 1, read-out: HIV-1 EC50 ± stdev)","EC50 ([2]; HIV-1 infection model, supplementary ref 7, read-out: HIV-1 EC50 ± stdev)"
"CN(C)C(=O)CCc1cnc2c(c1)c(N)c(C(=O)NCc1ccc(F)cc1F)c(=O)n2O [XZ450, 4-amino-N-(2,4-difluorobenzyl)-6-(3-(dimethylamino)-3-oxopropyl)-1-hydroxy-2-oxo-1,2-dihydro-1,8-naphthyridine-3-carboxamide]",0.2536%,0.5264%,0.2229%,5 ± 1.3 nM,–,–,–
"Nc1c(C(=O)NCc2ccc(F)cc2F)c(=O)n(O)c2ncc(CCS(=O)(=O)c3ccccc3)cc12 [XZ446, 4-amino-N-(2,4-difluorobenzyl)-1-hydroxy-2-oxo-6-(2-(phenylsulfonyl)ethyl)-1,2-dihydro-1,8-naphthyridine-3-carboxamide]",13.9354%,1.128%,3.891%,–,2 ± 0.1 nM,–,–
"Nc1c(C(=O)NCc2ccc(F)cc2F)c(=O)n(O)c2ncc(CCCO)cc12 [XZ423, 4-amino-N-(2,4-difluorobenzyl)-1-hydroxy-6-(3-hydroxypropyl)-2-oxo-1,2-dihydro-1,8-naphthyridine-3-carboxamide]",2.519%,0.166%,0.06882%,–,–,3.1 ± 2 nM,–
"Nc1c(C(=O)NCc2ccc(F)cc2F)c(=O)n(O)c2ncc(CCC(=O)NCCO)cc12 [XZ448, 4-amino-N-(2,4-difluorobenzyl)-1-hydroxy-6-(3-((2-hydroxyethyl)amino)-3-oxopropyl)-2-oxo-1,2-dihydro-1,8-naphthyridine-3-carboxamide]",25.215%,64.5778%,27.0471%,263 ± 52 nM,–,–,–
"CC(C)n1c(C(=O)N(C)C)c2c(c(O)c1=O)C(=O)N(Cc1ccc(F)c(Cl)c1)CC2 [XZ236, 6-(3-chloro-4-fluorobenzyl)-4-hydroxy-2-isopropyl-N,N-dimethyl-3,5-dioxo-2,3,5,6,7,8-hexahydro-2,6-naphthyridine-1-carboxamide, reference compound]",4.2364%,4.296%,2.243%,–,–,–,17 ± 4 nM
